Results published in patent US8952024B2, “Herbicidal pyrimidone derivatives” (E I du Pont de Nemours and Company, priority 2009, dated 2015).

How the values were obtained:
Assay type in all cases: in vivo
[1] = system: morningglory (Ipomoea spp.); assay: Test A pre-/postemergence plant response; conditions: for Morningglory plant response rating: visual injury, 0 to 100 scale (0 no effect, 100 complete control), approx. ten days
Summary of the method: (§1)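 Greenhouse trial, ~10 days. Soil (loam/sand) sprayed preemergence after seeding; emerged plants (1–2 leaf, 2–10 cm) sprayed postemergence in parallel. Response = visual injury vs untreated control, 0–100.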

[2] = system: pigweed (Amaranthus retroflexus); assay: Test A pre-/postemergence plant response; conditions: for Pigweed plant response rating: visual injury, 0 to 100 scale (0 no effect, 100 complete control), approx. ten days
Summary of the method: as §1

rice (Oryza sativa) = assay: Test B flooded paddy test; conditions: for Plant response rating, Rice: Flood (flooded paddy test), 13 to 15 days; for Rice plant response rating: Flood, 31 g ai/ha, scale 0 to 100 (0 no effect, 100 complete control)
Summary of the method: (§2)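 Seedlings reaching 2 leaves are flooded 3 cm deep; test material is delivered to that water, which stays at the same depth. Plants remain in a greenhouse 13–15 days and are then scored by eye versus controls from 0 to 100.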

[3] = system: ducksalad (Heteranthera limosa); assay: Test B flooded paddy test; conditions: for Plant response rating, Ducksalad: Flood (flooded paddy test), 13 to 15 days; for Ducksalad plant response rating: Flood, 31 g ai/ha, scale 0 to 100 (0 no effect, 100 complete control)
Summary of the method: as §2

[4] = system: umbrella sedge (Cyperus difformis); assay: Test B flooded paddy test; conditions: for Plant response rating, Sedge, Umbrella: Flood (flooded paddy test), 13 to 15 days; for Sedge, Umbrella plant response rating: Flood, 31 g ai/ha, scale 0 to 100 (0 no effect, 100 complete control)
Summary of the method: as §2

[5] = system: barnyardgrass (Echinochloa crus-galli); assay: Test B flooded paddy test; conditions: for Plant response rating, Barnyardgrass: Flood (flooded paddy test), 13 to 15 days; for Barnyardgrass plant response rating: Flood, 31 g ai/ha, scale 0 to 100 (0 no effect, 100 complete control)
Summary of the method: as §2

[6] = system: wheat (Triticum aestivum); assay: Test B pre-/postemergence plant response; conditions: Postemergence
Summary of the method: (§3)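 Visual injury, 0–100 scale (100 = complete control), rated against controls after 13 to 15 days in greenhouse. Pre-emergence: seeds in loam/sand soil, treated at planting. Post-emergence: 1- to 4-leaf plants (2 to 18 cm) in peat/vermiculite medium. Compounds formulated in non-phytotoxic solvent with surfactant.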

[7] = system: giant foxtail (Setaria faberii); assay: Test B pre-/postemergence plant response; conditions: Postemergence
Summary of the method: as §3

[8] = system: johnsongrass (Sorghum halepense); assay: Test B pre-/postemergence plant response; conditions: Postemergence
Summary of the method: as §3

[9] = system: morningglory (Ipomoea coccinea); assay: Test B pre-/postemergence plant response; conditions: Postemergence
Summary of the method: as §3

[10] = system: woolly cupgrass (Eriochloa villosa); assay: Test B pre-/postemergence plant response; conditions: Postemergence
Summary of the method: as §3

[11] = system: goosegrass (Eleusine indica); assay: Test B pre-/postemergence plant response; conditions: Postemergence
Summary of the method: as §3

[12] = Postemergence, 125 g ai/ha, 0 to 100 scale where 0 is no effect and 100 is complete control
[13] = Preemergence, 125 g ai/ha, 0 to 100 scale, 0 = no effect, 100 = complete control
[14] = Preemergence, 500 g ai/ha, 0 to 100 scale, 0 = no effect, 100 = complete control
[15] = 250 g ai/ha, flooded paddy test, visual rating on 0 to 100 scale (0 no effect, 100 complete control) after 13 to 15 days
[16] = 62 g ai/ha, scale of 0 to 100 where 0 is no effect and 100 is complete control
[17] = 125 g ai/ha, scale 0 to 100, 0 is no effect, 100 is complete control
[18] = 31 g ai/ha, 0 to 100 scale (0 no effect, 100 complete control)
[19] = 125 g ai/ha, scale 0 to 100 (0 no effect, 100 complete control)
[20] = 250 g ai/ha, scale 0 to 100 (0 no effect, 100 complete control), 13 to 15 days

In the case of `Cc1ccc(-n2c(-c3cc(F)cc(F)c3)ncc(C(=O)C3=C(O)CCCC3=O)c2=O)cc1` [Compound 162], the “Plant response rating, Morningglory” value [1, 12] is reported as 100, the “Morningglory plant response rating” value ([1]; Postemergence, 500 g ai/ha) is reported as 100 and the “Plant response rating, Morningglory” value [1, 13] is reported as 0. The “Plant response rating, Morningglory” value [1, 14] was 80, the “Plant response rating, Pigweed” value [2, 12] was 100 and the “Pigweed plant response rating” value ([2]; Postemergence, 500 g ai/ha) was 100. The “Plant response rating, Pigweed” value [2, 13] was 100, the “Plant response rating, Pigweed” value [2, 14] was 100 and the “Plant response rating, Flood, Rice” value (rice (Oryza sativa); [15]) was 90. The “Plant response rating, Rice” value (rice (Oryza sativa); [16]) was 25, the “Plant response rating, Rice” value (rice (Oryza sativa); [17]) was 90 and the “Rice plant response rating” value (rice (Oryza sativa)) was 0. For the same molecule, the “Plant response rating, Flood, Ducksalad” value [3, 15] was 100, the “Plant response rating, Ducksalad” value [3, 16] was 100 and the “Plant response rating, Ducksalad” value [3, 17] was 100. For the same molecule, the “Ducksalad plant response rating” value [3] was 98, the “Plant response rating, Flood, Sedge, Umbrella” value [4, 15] was 100 and the “Plant response rating, Sedge, Umbrella” value [4, 16] was 100. For the same molecule, the “Plant response rating, Sedge, Umbrella” value [4, 17] was 100, the “Sedge, Umbrella plant response rating” value [4] was 95 and the “Plant response rating, Flood, Barnyardgrass” value [5, 15] was 55. For the same molecule, the “Plant response rating, Barnyardgrass” value [5, 16] was 25, the “Plant response rating, Barnyardgrass” value [5, 17] was 40 and the “Barnyardgrass plant response rating” value [5] was 20. For the same molecule, the “Plant response rating, Wheat” value [6, 18] was 10, the “Plant response rating, Wheat” value [6, 19] was 35 and the “Plant response rating, Wheat” value [6, 20] was 40. The “Plant response rating, Foxtail, Giant” value [7, 18] was 85, the “Plant response rating, Foxtail, Giant” value [7, 19] was 98 and the “Plant response rating, Foxtail, Giant” value [7, 20] was 98. The “Plant response rating, Johnsongrass” value [8, 18] was 98, the “Plant response rating, Johnsongrass” value [8, 19] was 100 and the “Plant response rating, Johnsongrass” value [8, 20] was 100. The “Plant response rating, Morningglory” value [9, 18] was 75, the “Plant response rating, Morningglory” value [9, 19] was 90 and the “Plant response rating, Morningglory” value [9, 20] was 100. The “Plant response rating, Cupgrass, Woolly” value [10, 18] was 90, the “Plant response rating, Cupgrass, Woolly” value [10, 19] was 100 and the “Plant response rating, Cupgrass, Woolly” value [10, 20] was 100. For the same molecule, the “Plant response rating, Goosegrass” value [11, 18] was 60, the “Plant response rating, Goosegrass” value [11, 19] was 90 and the “Plant response rating, Goosegrass” value [11, 20] was 98.

With `CCCn1c(-c2cc(Cl)cc(Cl)c2)ncc(C(=O)C2=C(O)CCCC2=O)c1=O` [Compound 173] the “Plant response rating, Morningglory” value [1, 12] was 100, the “Morningglory plant response rating” value ([1]; Postemergence, 500 g ai/ha) was 100 and the “Plant response rating, Morningglory” value [1, 13] was 0. For the same molecule, the “Plant response rating, Pigweed” value [2, 12] was 100, the “Pigweed plant response rating” value ([2]; Postemergence, 500 g ai/ha) was 100 and the “Plant response rating, Pigweed” value [2, 13] was 50. The “Plant response rating, Pigweed” value [2, 14] was 90, the “Plant response rating, Rice” value (rice (Oryza sativa); [17]) was 15 and the “Rice plant response rating” value (rice (Oryza sativa)) was 0. For the same molecule, the “Plant response rating, Ducksalad” value [3, 17] was 75, the “Ducksalad plant response rating” value [3] was 30 and the “Plant response rating, Sedge, Umbrella” value [4, 17] was 85. The “Sedge, Umbrella plant response rating” value [4] was 0, the “Plant response rating, Barnyardgrass” value [5, 17] was 15 and the “Barnyardgrass plant response rating” value [5] was 0. For the same molecule, the “Plant response rating, Wheat” value [6, 18] was 10, the “Plant response rating, Wheat” value [6, 19] was 40 and the “Plant response rating, Wheat” value [6, 20] was 50. The “Plant response rating, Foxtail, Giant” value [7, 18] was 95, the “Plant response rating, Foxtail, Giant” value [7, 19] was 100 and the “Plant response rating, Foxtail, Giant” value [7, 20] was 100. The “Plant response rating, Johnsongrass” value [8, 18] was 65, the “Plant response rating, Johnsongrass” value [8, 19] was 95 and the “Plant response rating, Morningglory” value [9, 18] was 75. For the same molecule, the “Plant response rating, Morningglory” value [9, 19] was 80, the “Plant response rating, Morningglory” value [9, 20] was 95 and the “Plant response rating, Cupgrass, Woolly” value [10, 18] was 85. The “Plant response rating, Cupgrass, Woolly” value [10, 19] was 100, the “Plant response rating, Cupgrass, Woolly” value [10, 20] was 100 and the “Plant response rating, Goosegrass” value [11, 18] was 80. The “Plant response rating, Goosegrass” value [11, 19] was 95 and the “Plant response rating, Goosegrass” value [11, 20] was 100.
